Measurements from US20260308149A1, “NOVEL CARBOXAMIDE DERIVATIVES” (ANGELINI PHARMA S.P.A., priority 2023, published 2026).

Molecular target: T1, human Kv7.2 (Homo sapiens, UniProt O43526)
T1 construct: expressed in transfected cells
Assay: activation (potentiation) of Kv7.2 current, SyncroPatch 384 electrophysiology in CHO cells stably expressing human Kv7.2
Assay type: cell-based
Conditions: human Kv7.2 in CHO cells; in presence of 5.6 μM zinc pyrithione; % activation relative to 30 μM ML-213
Method in brief: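 CHO cells stably expressing human Kv7.2 were recorded by automated patch clamp, holding at −60 mV with steps to −30, 40 and −90 mV; current was read at the −90 mV step. Compounds were added after 5.6 μM zinc pyrithione pre-activation. % activation was normalised between 30 μM ML-213 (max) and TEA+XE-991 (leak), with EC50 from a logistic fit.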

T1 sequence (O43526 whole entry): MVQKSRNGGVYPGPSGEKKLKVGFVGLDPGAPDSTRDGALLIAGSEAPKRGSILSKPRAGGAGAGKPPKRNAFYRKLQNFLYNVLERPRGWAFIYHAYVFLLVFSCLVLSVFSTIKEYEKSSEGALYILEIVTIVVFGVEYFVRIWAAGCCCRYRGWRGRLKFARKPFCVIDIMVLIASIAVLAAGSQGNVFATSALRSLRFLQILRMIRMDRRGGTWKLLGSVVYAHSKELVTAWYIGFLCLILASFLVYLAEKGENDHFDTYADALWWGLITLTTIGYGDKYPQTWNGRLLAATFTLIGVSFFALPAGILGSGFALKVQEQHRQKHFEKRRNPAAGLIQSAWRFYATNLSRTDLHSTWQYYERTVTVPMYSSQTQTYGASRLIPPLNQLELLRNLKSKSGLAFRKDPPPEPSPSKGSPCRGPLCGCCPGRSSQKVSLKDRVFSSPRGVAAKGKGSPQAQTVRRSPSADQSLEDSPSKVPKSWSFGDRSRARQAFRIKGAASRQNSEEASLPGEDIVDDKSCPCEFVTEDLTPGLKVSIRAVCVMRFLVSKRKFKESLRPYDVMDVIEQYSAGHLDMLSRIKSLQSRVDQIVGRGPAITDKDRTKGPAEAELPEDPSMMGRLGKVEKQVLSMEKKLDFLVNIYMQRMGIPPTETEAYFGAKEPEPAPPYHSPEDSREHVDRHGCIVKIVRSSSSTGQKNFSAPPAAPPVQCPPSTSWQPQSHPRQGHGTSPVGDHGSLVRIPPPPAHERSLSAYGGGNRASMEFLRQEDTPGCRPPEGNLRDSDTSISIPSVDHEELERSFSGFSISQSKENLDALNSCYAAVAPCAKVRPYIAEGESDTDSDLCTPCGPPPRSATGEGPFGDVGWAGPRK

SMILES | EC50
O=C(CC1CCCCC1)NCC1(c2ccnc(OC(F)F)c2)CCO1 (stereo not drawn) [Example 117, 2-cyclohexyl-N-[[2-[2-(difluoromethoxy)-4-pyridyl]oxetan-2-yl]methyl]acetamide] | 4.33 µM
N#Cc1cccc([C@]2(CNC(=O)CC34CCC(CC3)C4)CCO2)c1 [Example 109, N-[[(2S)-2-(3-cyanophenyl)oxetan-2-yl]methyl]-2-norbornan-1-yl-acetamide] | 0.71 µM
COc1cc(C(C)(CNC(=O)[C@H]2C[C@@H]2c2ccccc2)OC)ccn1 (mixture of isomers) [Example 52, (1S,2S)-N-[(2RS)-2-methoxy-2-(2-methoxy-4-pyridyl)propyl]-2-phenyl-cyclopropanecarboxamide] | 9.42 µM
O=C(NCC1(c2cccc(Cl)c2)COC1)[C@H]1C[C@@H]1c1ccccc1 [Example 68, (1S,2S)—N-[[3-(3-chlorophenyl)oxetan-3-yl]methyl]-2-phenyl-cyclopropanecarboxamide] | 0.2 µM
CCCCNC(=O)NCC(C)(OC)c1cccc(Cl)c1 (stereo not drawn) [Example 8, 1-butyl-3-[2-(3-chlorophenyl)-2-methoxy-propyl]urea] | 3.65 µM
CC#C[C@H]1C[C@@H]1C(=O)NC[C@@]1(c2cccc(C#N)c2)CCO1 (mixture of isomers) [Example 134, (1SR,2SR)—N-[[(2S)-2-(3-cyanophenyl)oxetan-2-yl]methyl]-2-prop-1-ynyl-cyclopropanecarboxamide] | 1.7 µM
COC(C)(CNC(=O)NCC1CC1)c1cccc(Cl)c1 (stereo not drawn) [Example 23, 1-[2-(3-chlorophenyl)-2-methoxy-propyl]-3-(cyclopropylmethyl)urea] | 8.2 µM
COC(C)(CNC(=O)NC1CCCC1)c1cccc(Cl)c1 (stereo not drawn) [Example 3, 1-[2-(3-chlorophenyl)-2-methoxy-propyl]-3-cyclopentyl-urea] | 2.34 µM
COC(C)(CNC(=O)Nc1cccc(C)c1)c1cccc(Cl)c1 (stereo not drawn) [Example 6, 1-[2-(3-chlorophenyl)-2-methoxy-propyl]-3-(m-tolyl)urea] | 2.41 µM
CO[C@@](C)(CNC(=O)[C@H]1C[C@H]1C1CCCC1)c1cccc(Cl)c1 (mixture of isomers) [Example 81, (1SR,2SR)—N-[(2R)-2-(3-chlorophenyl)-2-methoxy-propyl]-2-cyclopentyl-cyclopropanecarboxamide] | 0.5 µM
N#Cc1cccc([C@]2(CNC(=O)C3CC3n3cccc3)CCO2)c1 (stereo partly drawn) [Example 135, N-[[(2S)-2-(3-cyanophenyl)oxetan-2-yl]methyl]-2-pyrrol-1-yl-cyclopropanecarboxamide] | 1.14 µM
COC(CNC(=O)Nc1cccc(C)c1)c1cccc(Cl)c1 (stereo not drawn) [Example 22, 1-[2-(3-chlorophenyl)-2-methoxy-ethyl]-3-(m-tolyl)urea] | 1.99 µM
CCOc1cccc(NC(=O)NCC(C)(OC)c2cccc(Cl)c2)c1 (stereo not drawn) [Example 14, 1-[2-(3-chlorophenyl)-2-methoxy-propyl]-3-(3-ethoxyphenyl)urea] | 0.6 µM
O=C(NCC(OC1CC1)c1cccc(Cl)c1)NC1CCCC1 (stereo not drawn) [Example 18, 1-[2-(3-chlorophenyl)-2-(cyclopropoxy)ethyl]-3-cyclopentyl-urea] | 4.58 µM
O=C(N[C@H]1C[C@@H]2CC[C@H]1C2)N[C@H]1C[C@H](c2cccc(Cl)c2)C1 (racemic) [Example 38, 1-[3-(1r,3r)-(3-chlorophenyl)cyclobutyl]-3-[(1SR,2SR,4RS)-norbornan-2-yl]urea] | 0.83 µM
O=C(NC[C@]1(c2cccc(Cl)c2)OCC1(F)F)[C@H]1C[C@@H]1c1ccccc1 (stereo in doubt) [Example 42, (1S,2S)-N-[[(2S)-2-(3-chlorophenyl)-3,3-difluoro-oxetan-2-yl]methyl]-2-phenyl-cyclopropanecarboxamide] | 0.63 µM
[2H]C([2H])([2H])OC(C)(CNC(=O)NC1CCCC1)c1cccc(Cl)c1 (stereo not drawn) [Example 26, 1-[2-(3-chlorophenyl)-2-(trideuteriomethoxy)propyl]-3-cyclopentyl-urea] | 4.01 µM
O=C(NCC1(c2cccc(OC(F)F)n2)CCO1)[C@H]1C[C@@H]1c1ccccc1 (stereo partly drawn) [Example 99, (1S,2S)—N-[[2-[6-(difluoromethoxy)-2-pyridyl]oxetan-2-yl]methyl]-2-phenyl-cyclopropanecarboxamide] | 0.23 µM
O=C(CC12CC(C1)C2)NCC1(c2cccc(Cl)c2)CCO1 (stereo not drawn) [Example 63] | 5.19 µM
N#Cc1cccc([C@]2(CNC(=O)[C@H]3C[C@@H]3c3ccccc3)CCO2)c1 [Example 49, (1S,2S)-N-[[(2S)-2-(3-cyanophenyl)oxetan-2-yl]methyl]-2-phenyl-cyclopropanecarboxamide] | 0.04 µM
CC(C)(C)[C@@H]1C[C@H]1C(=O)NC[C@@]1(c2cccc(C#N)c2)CCO1 (mixture of isomers) [Example 110, (1RS,2RS)-2-tert-butyl-N-[[(2S)-2-(3-cyanophenyl)oxetan-2-yl]methyl]cyclopropanecarboxamide] | 0.49 µM
N#Cc1cccc(C2(CNC(=O)CC3CCCCC3)OCC2(F)F)c1 (stereo not drawn) [Example 91, N-[[2-(3-cyanophenyl)-3,3-difluoro-oxetan-2-yl]methyl]-2-cyclohexyl-acetamide] | 1.12 µM
COC(C)(CNC(=O)NC1CC2CCC1C2)c1cccc(Cl)c1 (racemic) [Example 35, 1-[2-(3-chlorophenyl)-2-methoxy-propyl]-3-[rac-(1S,4R)-norbornan-2-yl]urea] | 1.35 µM
N#Cc1cccc([C@]2(CNC(=O)C3CCC4(CCC4)C3)CCO2)c1 (stereo partly drawn) [Example 102, N-[[(2S)-2-(3-cyanophenyl)oxetan-2-yl]methyl]spiro[3.4]octane-7-carboxamide] | 3.01 µM

The remaining molecules from weak to strong by EC50, led by results:

EC50 | SMILES
9.61 µM | CO[C@@](C)(CNC(=O)[C@H]1C[C@@H]1c1cccnc1)c1cccc(Cl)c1 (mixture of isomers) [Example 48, (1SR,2SR)-N-[(2R)-2-(3-chlorophenyl)-2-methoxy-propyl]-2-(3-pyridyl)cyclopropanecarboxamide]
7.6 µM | O=C(NCC1(c2cccc(Cl)c2)CCO1)C1CCCCC1 (stereo not drawn) [Example 61]
6.29 µM | CO[C@@](C)(CNC(=O)CCC(O)C(C)(C)C)c1cccc(Cl)c1 (stereo partly drawn) [Example 69, N-[(2R)-2-(3-chlorophenyl)-2-methoxy-propyl]-4-hydroxy-5,5-dimethyl-hexanamide]
3.1 µM | O=C(NCC(CO)c1cccc(Cl)c1)[C@H]1C[C@@H]1c1ccccc1 (stereo partly drawn) [Example 74, (1S,2S)—N-[2-(3-chlorophenyl)-3-hydroxy-propyl]-2-phenyl-cyclopropanecarboxamide]
2.75 µM | O=C(NCC1(c2cccc(Cl)c2)CCO1)C1CC2(CCC2)C1 (stereo not drawn) [Example 64, N-[[2-(3-chlorophenyl)oxetan-2-yl]methyl]spiro[3.3]heptane-2-carboxamide]
2.51 µM | CCc1cc(C2(CNC(=O)[C@H]3C[C@@H]3c3ccccc3)CCO2)ccn1 (stereo partly drawn) [Example 121, (1S,2S)—N-[[2-(2-ethyl-4-pyridyl)oxetan-2-yl]methyl]-2-phenyl-cyclopropanecarboxamide]
2.49 µM | CC(C#N)(CNC(=O)[C@H]1C[C@@H]1c1ccccc1)c1cccc(C(F)(F)F)c1 (mixture of isomers) [Example 31, rac-(1S,2S)-N-[2-cyano-2-[3-(trifluoromethyl)phenyl]propyl]-2-phenyl-cyclopropanecarboxamide]
2.19 µM | N#Cc1cc(C2(CNC(=O)[C@H]3C[C@@H]3c3ccccc3)CCO2)ccc1F (stereo partly drawn) [Example 125, (1S,2S)—N-[[2-(3-cyano-4-fluoro-phenyl)oxetan-2-yl]methyl]-2-phenyl-cyclopropanecarboxamide]
2.01 µM | N#Cc1cccc([C@]2(CNC(=O)CC3(O)CC4CCC3C4)CCO2)c1 (stereo partly drawn) [Example 111, N-[[(2S)-2-(3-cyanophenyl)oxetan-2-yl]methyl]-2-(2-hydroxynorbornan-2-yl)acetamide]
1.67 µM | COc1cccc(NC(=O)NC[C@](C)(OC)c2cccc(Cl)c2)c1 [Example 17, 1-[(2R)-2-(3-chlorophenyl)-2-methoxy-propyl]-3-(3-methoxyphenyl)urea]
1.11 µM | CC#C[C@@H]1C[C@@H]1C(=O)NC[C@@]1(c2cccc(C#N)c2)CCO1 (mixture of isomers) [Example 137, (1SR,2RS)—N-[[(2S)-2-(3-cyanophenyl)oxetan-2-yl]methyl]-2-prop-1-ynyl-cyclopropanecarboxamide]
0.9 µM | COC(C)(CNC(=O)C1CC1c1ccc(Cl)cc1)c1cccc(Cl)c1 (stereo not drawn) [Example 44, 2-(4-chlorophenyl)-N-[2-(3-chlorophenyl)-2-methoxy-propyl]cyclopropanecarboxamide]
0.62 µM | COC(C)(CNC(=O)CC1CCCCC1)c1cccc(Cl)c1 (stereo not drawn) [Example 19, N-[2-(3-chlorophenyl)-2-methoxy-propyl]-2-cyclohexyl-acetamide]
0.53 µM | COC(C)(CNC(=O)NCC1CCCC1)c1cccc(Cl)c1 (single isomer, unassigned) [Example 71]
0.47 µM | N#Cc1cccc([C@]2(CNC(=O)[C@H]3C[C@@H]3c3ccc(Br)cc3)CCO2)c1 [Example 128, (1S,2S)-2-(4-bromophenyl)-N-[[(2S)-2-(3-cyanophenyl)oxetan-2-yl]methyl]cyclopropanecarboxamide]
0.19 µM | O=C(NCC1(c2cccc(Cl)c2)CCO1)NC1CC2CCC1C2 (racemic) [Example 54, 1-[[2-(3-chlorophenyl)oxetan-2-yl]methyl]-3-[rac-(1S,2S,4R)-norbornan-2-yl]urea]
0.11 µM | COC(C)(CNC(=O)C1CC1c1ccccc1F)c1cccc(Cl)c1 (stereo not drawn) [Example 43, N-[2-(3-chlorophenyl)-2-methoxy-propyl]-2-(2-fluorophenyl)cyclopropanecarbox-amide]
0.06 µM | N#Cc1cccc(C2(CNC(=O)[C@H]3C[C@@H]3c3ccccc3)OCC2(F)F)c1 (stereo partly drawn) [Example 87, (1S,2S)—N-[[2-(3-cyanophenyl)-3,3-difluoro-oxetan-2-yl]methyl]-2-phenyl-cyclopropanecarboxamide]
